Molecules are shown by their SMILES. Values joined by “and” are separate entries in the source; they are usually repeats but may differ in a detail not shown here. Identical values can stand only once. Inconclusive results and toxic doses are left out.

In the assay the test system is L1210 leukemia ip in BDF1 mice, survival T/C. In words: NCI In Vivo Anticancer Drug Screen. Data for tumor model L1210 Leukemia (intraperitoneal) in B6D2F1 (BDF1) mice. As to conditions: endpoint: mean survival time, higher = longer survival. The procedure, abridged: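 Value reflects the ratio of survival in compound-treated mice to survival in vehicle-treated controls, with both groups carrying the same transplanted tumor.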

Where [1] appears, read: dose: 100.0 mg/kg/injection, schedule: Q04DX003 (ip), vehicle: Klucel (hydroxypropylcellulose) (HPC).
Where [2] appears, read: dose: 50.0 mg/kg/injection, schedule: Q01DX009 (ip), vehicle: Klucel (hydroxypropylcellulose) (HPC).
The mark [3] stands for this setting: dose: 100.0 mg/kg/injection, schedule: Q01DX009 (ip), vehicle: Klucel (hydroxypropylcellulose) (HPC).
[4] abbreviates: dose: 200.0 mg/kg/injection, schedule: Q01DX009 (ip), vehicle: Klucel (hydroxypropylcellulose) (HPC).

As to `CSCC(C(N)=O)c1cc(Cl)ccc1Cl` (stereo unspecified), the T/C by setting is: (dose: 100.0 mg/kg/injection, schedule: Q01DX001 (ip), vehicle: Klucel (hydroxypropylcellulose) (HPC)) 107 % of control; (dose: 100.0 mg/kg/injection, schedule: Q01DX009 (ip), vehicle: water) 100 % of control; under setting [1], 102 % of control; (dose: 100.0 mg/kg/injection, schedule: Q04DX003 (ip), vehicle: water) 100 % of control; (dose: 200.0 mg/kg/injection, schedule: Q01DX001 (ip), vehicle: Klucel (hydroxypropylcellulose) (HPC)) 103 % of control; (dose: 200.0 mg/kg/injection, schedule: Q01DX009 (ip), vehicle: water) 94 % of control. Besides, the T/C runs as follows: (dose: 200.0 mg/kg/injection, schedule: Q04DX003 (ip), vehicle: Klucel (hydroxypropylcellulose) (HPC)) 104 % of control; (dose: 200.0 mg/kg/injection, schedule: Q04DX003 (ip), vehicle: water) 100 % of control; (dose: 400.0 mg/kg/injection, schedule: Q01DX001 (ip), vehicle: Klucel (hydroxypropylcellulose) (HPC)) 102 % of control; (dose: 400.0 mg/kg/injection, schedule: Q01DX009 (ip), vehicle: water) 94 % of control; (dose: 400.0 mg/kg/injection, schedule: Q04DX003 (ip), vehicle: Klucel (hydroxypropylcellulose) (HPC)) 96 % of control; (dose: 400.0 mg/kg/injection, schedule: Q04DX003 (ip), vehicle: water) 90 % of control.
Turning to `O=C(CCCCC(=O)Nc1ccc(C2=NCCN2)cc1)Nc1ccc(C2=NCCN2)cc1`, the T/C is 123 % of control (dose: 11.0 mg/kg/injection, schedule: Q01DX009 (ip), vehicle: saline); 123 % of control (dose: 75.0 mg/kg/injection, schedule: Q04DX003 (ip), vehicle: saline); 256 % of control (dose: 90.0 mg/kg/injection, schedule: Q01DX009 (ip), vehicle: saline); 123 % of control (dose: 150.0 mg/kg/injection, schedule: Q04DX003 (ip), vehicle: saline); 108 % of control (dose: 175.0 mg/kg/injection, schedule: Q01DX001 (ip), vehicle: saline); 212 % of control (dose: 175.0 mg/kg/injection, schedule: Q01DX009 (ip), vehicle: saline). The T/C was 214 % of control (dose: 265.0 mg/kg/injection, schedule: Q01DX009 (ip), vehicle: saline); 156 % of control (dose: 266.0 mg/kg/injection, schedule: Q01DX001 (ip), vehicle: saline); 154 % of control (dose: 300.0 mg/kg/injection, schedule: Q04DX003 (ip), vehicle: saline); 186 % of control (dose: 400.0 mg/kg/injection, schedule: Q01DX001 (ip), vehicle: saline); 179 % of control (dose: 500.0 mg/kg/injection, schedule: Q01DX001 (ip), vehicle: carboxymethylcellulose (CMC)); 214 % of control (dose: 600.0 mg/kg/injection, schedule: Q01DX001 (ip), vehicle: saline). The T/C by setting is: (dose: 600.0 mg/kg/injection, schedule: Q04DX003 (ip), vehicle: saline) 197 % of control; (dose: 1000.0 mg/kg/injection, schedule: Q01DX001 (ip), vehicle: carboxymethylcellulose (CMC)) 273 % of control.
With `OC1C(Br)C2C3CC4C(C13)C42` (stereo unspecified), the T/C runs as follows: (dose: 50.0 mg/kg/injection, schedule: Q04DX002 (ip), vehicle: Klucel (hydroxypropylcellulose) (HPC)) 97 % of control; (dose: 100.0 mg/kg/injection, schedule: Q04DX002 (ip), vehicle: Klucel (hydroxypropylcellulose) (HPC)) 89 % of control; (dose: 200.0 mg/kg/injection, schedule: Q04DX002 (ip), vehicle: Klucel (hydroxypropylcellulose) (HPC)) 93 % of control.
On to `CCC1(C)C(=O)N(C)C(=O)N1Br` (stereo unspecified), for which the T/C is, setting by setting: (dose: 25.0 mg/kg/injection, schedule: Q01DX009 (ip), vehicle: Klucel (hydroxypropylcellulose) (HPC)) 96 % of control; under setting [2], 101 % of control; under setting [1], 97 % of control.
As to `O=S1(=O)C=C2CCCCC21` (stereo unspecified), the T/C (dose: 75.0 mg/kg/injection, schedule: Q01DX001 (ip), vehicle: carboxymethylcellulose (CMC)) is 100 % of control.
Consider `O=C(COc1ccccc1)N(O)c1ccc(/C=C/c2ccccc2)cc1`, for which the T/C reads like this: (dose: 100.0 mg/kg/injection, schedule: Q01DX001 (ip), vehicle: carboxymethylcellulose (CMC)) 93 % of control; (dose: 200.0 mg/kg/injection, schedule: Q01DX001 (ip), vehicle: carboxymethylcellulose (CMC)) 95 % of control; (dose: 400.0 mg/kg/injection, schedule: Q01DX001 (ip), vehicle: carboxymethylcellulose (CMC)) 88 % of control.
Regarding `Nc1nnnc2c1ncn2C1OC(CO)C(O)C1O` (stereo unspecified), the T/C by setting is: (dose: 1.6 mg/kg/injection, schedule: Q01DX009 (ip), vehicle: saline) 120 % of control; (dose: 2.8 mg/kg/injection, schedule: Q01DX009 (ip), vehicle: saline) 108 % of control; (dose: 4.8 mg/kg/injection, schedule: Q01DX009 (ip), vehicle: saline) 117 % of control; (dose: 9.5 mg/kg/injection, schedule: Q01DX001 (ip), vehicle: saline) 106 % of control; (dose: 12.5 mg/kg/injection, schedule: Q04DX002 (ip), vehicle: saline) 92 % of control; (dose: 14.0 mg/kg/injection, schedule: Q01DX009 (ip), vehicle: saline) 123 % of control. Moreover, the T/C runs as follows: (dose: 19.0 mg/kg/injection, schedule: Q01DX001 (ip), vehicle: saline) 103 % of control and 117 % of control; (dose: 25.0 mg/kg/injection, schedule: Q04DX002 (ip), vehicle: saline) 100 % of control; (dose: 38.0 mg/kg/injection, schedule: Q01DX001 (ip), vehicle: saline) 106 % of control and 120 % of control; (dose: 38.0 mg/kg/injection, schedule: Q01DX009 (ip), vehicle: saline) 105 % of control; (dose: 50.0 mg/kg/injection, schedule: Q04DX002 (ip), vehicle: saline) 103 % of control; (dose: 75.0 mg/kg/injection, schedule: Q01DX001 (ip), vehicle: saline) 106 % of control.
For `CC(=O)OC(C)(C)/C=C/C(=O)[C@](C)(O)[C@H]1[C@H](O)C[C@@]2(C)[C@@H]3CC=C4[C@@H](C=C(O)C(=O)C4(C)C)[C@]3(C)C(=O)C[C@]12C`, the T/C reads like this: (dose: 0.4 mg/kg/injection, schedule: Q01DX Z (ip), vehicle: carboxymethylcellulose (CMC)) 94 % of control; (dose: 0.8 mg/kg/injection, schedule: Q01DX Z (ip), vehicle: carboxymethylcellulose (CMC)) 100 % of control; (dose: 1.6 mg/kg/injection, schedule: Q01DX Z (ip), vehicle: carboxymethylcellulose (CMC)) 105 % of control; (dose: 3.2 mg/kg/injection, schedule: Q01DX Z (ip), vehicle: carboxymethylcellulose (CMC)) 100 % of control.
Turning to `Cc1ccc([N+](=O)[O-])cc1NC(=O)NCCO`, the T/C by setting is: (dose: 100.0 mg/kg/injection, schedule: Q04DX003 (ip), vehicle: saline) 106 % of control; (dose: 200.0 mg/kg/injection, schedule: Q04DX003 (ip), vehicle: saline) 106 % of control; (dose: 400.0 mg/kg/injection, schedule: Q04DX003 (ip), vehicle: saline) 103 % of control.
For `O=C1NN(c2ccccc2)CCO1`, the T/C is 100 % of control under setting [3] and 93 % of control under setting [4].
For `CC(=O)Oc1c(C(C)(C)C)cc(C)cc1C(C)(C)C`, the T/C is 100 % of control under setting [2], 100 % of control under setting [3] and 103 % of control under setting [4].
Consider `Brc1ccc(Oc2ccccc2)cc1`, for which the T/C by setting is: (dose: 100.0 mg/kg/injection, schedule: Q01DX009 (ip), vehicle: saline with Tween-80) 101 % of control; (dose: 100.0 mg/kg/injection, schedule: Q04DX003 (ip), vehicle: saline with Tween-80) 102 % of control; (dose: 200.0 mg/kg/injection, schedule: Q01DX009 (ip), vehicle: saline with Tween-80) 95 % of control; (dose: 200.0 mg/kg/injection, schedule: Q04DX003 (ip), vehicle: saline with Tween-80) 97 % of control; (dose: 400.0 mg/kg/injection, schedule: Q01DX009 (ip), vehicle: saline with Tween-80) 97 % of control; (dose: 400.0 mg/kg/injection, schedule: Q04DX003 (ip), vehicle: saline with Tween-80) 108 % of control.

The values are drawn from PubChem BioAssay AID248 (DTP/NCI, 2004).
